{
  "source": "patent US20210290593A1",
  "about": "“USE OF SUSTAINED-RELEASE 5-HYDROXYTRYPTOPHAN IN TREATING GASTROINTESTINAL DISORDERS” (Duke University, priority 2018, published 2021)",
  "key": {"WT and R439H mice [1]": {"test_system": "WT and R439H mice", "assay": "Total gastrointestinal transit time (oral carmine red)", "type": "in vivo, mouse", "conditions": "30 mg/kg intraperitoneal", "description": "Carmine red (300 μl; 6%; Sigma-Aldrich) suspended in 0.5% methylcellulose, which cannot be absorbed, was administered by gavage to study total GI transit time. Total GI transit time was considered as the interval between gavage and the appearance of carmine red in stool (Kimball et al, 2005)."}, "WT and R439H mice [2]": {"test_system": "WT and R439H mice", "assay": "Colonic propulsion (glass bead expulsion time)", "type": "in vivo, mouse", "description": "Mice were anesthetized with isoflurane (Baxter Pharmaceutical Products) and a glass bead (3 mm in diameter) was pushed with a fire-polished glass rod through the anus into the colon to a distance of 2 cm from the anal verge (Li et al, 2006). The time required for the mice to expel the bead was determined and used to estimate in vivo colorectal propulsion."}, "[3]": {"test_system": "isolated colon of WT and R439H mice", "assay": "Colonic migrating motor complexes (CMMC) measured in vitro", "design": "species or system mouse", "description": "The entire colon (5-6 cm) was removed and mounted to allow spontaneous motor patterns to be video-imaged for the construction of spatiotemporal maps (Roberts et al, 2008; Roberts et al, 2007). The isolated colon was incubated in Krebs' solution until endogenous fecal pellets were expelled. The empty colon was cannulated at both ends, mounted in a horizontal organ bath, and both luminal and serosal compartments were superfused with oxygenated Krebs' solution at 35° C. The height of a reservoir connected to the oral cannula was adjusted to maintain intraluminal pressure at +2 cm HO. The anal cannula provided a maximum of 2 cm of back-pressure. The contractile activity was imaged with a Logitech Quickcam pro camera positioned 7-8 cm above the gut. Preparations were equilibrated for 30 min and four 15 min videos were captured. Spatiotemporal maps of the diameter at each point along the proximo-distal length of colon were constructed and used to quantify the frequency of CMMCs as well as the velocity and length of their propagation (Margolis et al, 2016b; Welch et al, 2014). CMMCs were defined as constrictions of the diameter of the bowel that propagated for at least 50% of the length of the preparations. For studies utilizing IR 5-HTP, a dose response curve was conducted whereby the isolated colons were exposed to concentrations of 5-HTP ranging from 1 to 10 μM, both intraluminally and extraluminally."}, "mice": {"test_system": "mice", "assay": "Morphine-induced constipation (colonic motility)", "type": "in vivo, mouse", "excerpt": "FIG. 8. Morphine-induced constipation and reversal by 5-HTP in mice."}, "animals": {"test_system": "animals", "assay": "Colonic motility, prucalopride vs 5-HTP", "type": "in vivo", "conditions": "in animals", "excerpt": "FIG. 9. Colonic motility. Effect of prucalopride vs 5-HTP."}, "[4]": {"assay": "Human 5-HTP gastrointestinal regional absorption study (plasma 5-HTP)", "type": "in vivo", "conditions": "for bioavailability: read-out: Absolute bioavailability F; for Cmax: read-out: Maximal average 5-HTP plasma (CMax) levels", "description": "Determination of absolute and regional intestinal bioavailability of 5-HTP in humans.\nThe free base form of 5-HTP was used (5-HTP has a water solubility of >10 mg/mL).\nColonic: 5-HTP free base saline solution 200 mg.\nIntravenous: 5-HTP free base saline solution 50 mg.\nOral/Upper GI: Two 5-HTP gelatin tablets of 100 mg 5-HTP free base (200 mg total dose).\nHealthy male and female volunteers aged 18 to 65 years with a body mass index (BMI) of 19 to 28 were eligible for the study. Subjects were admitted to the investigational medical unit (IMU) 2 h before 5-HTP administration and remained at the IMU for 24 h following, for blood sampling and safety assessment.\nAll subjects (n=12) received 5-HTP mg on 3 occasions. (1) Intra-colonic 200 mg 5-HTP solution by colonoscopy. (2) Intravenous 50 mg (IV). (3) Upper GI (oral) 5-HTP 200 mg. At least 6 days passed between each visit.\nPlasma samples were collected over 24-hours after 5-HTP administration. Plasma samples were stored at −80° C. until analysis. 5-HTP and the metabolite 5-hydroxyindole-acetic-acid (5-HIAA) were quantified by liquid chromatography with mass-spectrometry detection.\nThe PK data were analyzed using noncompartmental (NCA) and compartmental (mixed effects) mathematical modelling approaches, to calculate area 5-HTP plasma under the curve (AUC) for each subject for each 5-HTP administration.\nFrom FIG. 10, the area under the curve (AUC) for each route of administration was obtained, which was then used to calculate the absolute bioavailability (F) of the oral and colon routes of administration. For example, the formula for calculating F for a drug administered by the oral route (po) is given below (D is dose): […]"}, "Water solubility": {"assay": "Water solubility", "type": "physicochemical", "conditions": "free base"}, "[5]": {"conditions": "after administration of exogenous 5-HTP; cited from earlier work"}, "[6]": {"conditions": "one rodent study; cited from earlier work"}, "R439H mice": {"test_system": "R439H mice", "conditions": "cited from earlier work"}},
  "note": "Entries after “also recorded” stand apart in the source; their conditions may differ. Read-outs that look alike come from different tables or passages of the source.",
  "data": [
    {"smiles": "N[C@@H](Cc1c[nH]c2ccc(O)cc12)C(=O)O", "note": "[5-HTP, 5-hydroxytryptophan]", "values": [
      {"measurement": "Total in vivo GI transit time", "setting": "WT and R439H mice [1]", "result": "74.9 ± 19.5", "unit": "min"},
      {"measurement": "Time of colonic bead expulsion", "setting": "WT and R439H mice [2]; 30 mg/kg intraperitoneal", "result": "7.2 ± 1.6", "unit": "min"},
      {"measurement": "Time of colonic bead expulsion", "setting": "WT and R439H mice [2]; 100 mg/kg intraperitoneal", "result": "5.2 ± 1.6", "unit": "min"},
      {"measurement": "CMMC frequency", "setting": "[3]; R439H colon, extraluminal 1 μM", "result": "0.78±0.18", "unit": "CMMC/min"},
      {"measurement": "CMMC velocity", "setting": "[3]; R439H colon, extraluminal 1 μM", "result": "3.2±0.2", "unit": "mm/s"},
      {"measurement": "CMMC frequency", "setting": "[3]; R439H colon, intraluminal 1 μM", "result": "1.02±0.10", "unit": "CMMC/min"},
      {"measurement": "CMMC velocity", "setting": "[3]; R439H colon, intraluminal 1 μM", "result": "2.7±0.2", "unit": "mm/s"},
      {"measurement": "CMMC frequency", "setting": "[3]; WT colon, extraluminal 1 μM", "result": "0.60±0.20", "unit": "CMMC/min"},
      {"measurement": "CMMC velocity", "setting": "[3]; WT colon, extraluminal 1 μM", "result": "1.4±0.5", "unit": "mm/s"},
      {"measurement": "CMMC frequency", "setting": "[3]; WT colon, intraluminal 1 μM", "result": "0.90±0.06", "unit": "CMMC/min"},
      {"measurement": "CMMC velocity", "setting": "[3]; WT colon, intraluminal 1 μM", "result": "2.3±0.2", "unit": "mm/s"},
      {"measurement": "Colonic motility, 5-HTP by itself", "setting": "mice; 5-HTP 30 mg/kg", "result": "enhanced colonic motility"},
      {"measurement": "Effect on morphine-induced constipation (colonic motility)", "setting": "mice; 5-HTP 30 mg/kg with morphine 10 mg/kg", "result": "reversed the morphine-induced constipation"},
      {"measurement": "Efficacy (maximal effect) on colonic motility compared to prucalopride", "setting": "animals", "result": "higher efficacy"},
      {"measurement": "Potency on colonic motility compared to prucalopride", "setting": "animals", "result": "higher potency; also recorded: more potent than prucalopride at lower doses"},
      {"measurement": "Absorption in upper intestine compared to colon", "setting": "[4]", "result": 5, "unit": "times"},
      {"measurement": "AUC", "setting": "[4]; both sexes, plasma, intravenous dosing 50 mg", "result": 2040, "unit": "ng·h/mL"},
      {"measurement": "bioavailability", "setting": "[4]; both sexes, plasma, oral 200 mg (upper GI tract)", "result": 20, "unit": "%"},
      {"measurement": "AUC", "setting": "[4]; both sexes, plasma, oral dosing 200 mg", "result": 1500, "unit": "ng·h/mL"},
      {"measurement": "Cmax", "setting": "[4]; both sexes, plasma, other: intra-colonic by colonoscopy, 200 mg, intra-colonic 200 mg", "result": "40 to 50", "unit": "ng/mL"},
      {"measurement": "AUC", "setting": "[4]; both sexes, plasma, other: intra-colonic by colonoscopy, colonic dosing 200 mg", "result": 312, "unit": "ng·h/mL"},
      {"measurement": "bioavailability", "setting": "[4]; both sexes, plasma, other: intra-colonic by colonoscopy, intra-colonic 200 mg", "result": 4, "unit": "%"},
      {"measurement": "Relative upper GI:colon bioavailability", "setting": "[4]; both sexes, plasma, other: upper GI (oral) and intra-colonic compared, 200 mg, read-out: Relative upper GI tract:colon bioavailability (RBA)", "result": 20, "unit": "%"},
      {"measurement": "Cmax", "setting": "[4]; both sexes, plasma, po, 200 mg, oral 200 mg", "result": 370, "unit": "ng/mL"},
      {"measurement": "Maximal average 5-HTP plasma (CMax) levels", "setting": "[4]; intra-colonic 200 mg", "result": 47, "unit": "ng/mL"},
      {"measurement": "solubility", "setting": "Water solubility", "result": "> 10000", "unit": "µg/mL"},
      {"measurement": "5-HTP plasma levels needed to produce systemic pharmacological effects", "setting": "[5]", "result": "over 100 ng/ml"},
      {"measurement": "Absorption by the colon vs the upper intestine", "setting": "[6]", "result": "absorbed equally well by the colon and the upper intestine"}
    ]},
    {"smiles": "CN1CC[C@]23c4c5ccc(O)c4O[C@H]2[C@@H](O)C=C[C@H]3[C@H]1C5", "note": "[Morphine, reference compound]", "values": [
      {"measurement": "Colonic motility", "setting": "mice; morphine 10 mg/kg", "result": "induced constipation, as determined by slowed colonic motility"}
    ]},
    {"smiles": "CNCCC(Oc1ccc(C(F)(F)F)cc1)c1ccccc1", "note": "(stereo not shown) [fluoxetine]", "values": [
      {"measurement": "CNS 5-HT levels", "setting": "R439H mice", "result": "further decline in CNS 5-HT levels"},
      {"measurement": "Depressive behaviors", "setting": "R439H mice", "result": "worsened their depressive behaviors"}
    ]}
  ]
}
